For orientation: IC50 means the concentration needed to halve the response being measured.

Results on 34 compounds are retold here after patent US20230339937A1, “CONDENSED RING COMPOUNDS THAT INHIBIT H-PGDS” (SATO PHARMACEUTICAL CO., LTD., priority 2020, published 2023).

In the experiment the target is T1, Recombinant human H-PGDS (Homo sapiens, UniProt O60760).
T1 construct: made in house; host or cells: E. coli
Briefly: H-PGDS inhibitory activity (prostaglandin D2 production from prostaglandin H2, measured by LC-MS/MS). Particulars: recombinant human H-PGDS 1.0 nM expressed in E. coli; prostaglandin H2 25 μM; preincubated 15 minutes on ice, reacted on ice for 1 minute; concentration that inhibits prostaglandin D2 production by 50%. In kind it is biochemical. As for the experimental part: The H-PGDS inhibitory activity of each Example compound was measured according to the method reported by LIN, Jiang. et al. (NO 2007/041634).
Recombinant human H-PGDS (final concentration: 1.0 nM) expressed in E. coli was mixed in an assay buffer containing 20 mM Tris-HCl (pH 8.0), 2 mM magnesium chloride, 2 mM reduced glutathione, and 0.5 mg/mL γ-globulin, and 150 μL of the mixture was dispensed into a 8-strip PCR tube (BM Equipment Co., Ltd.). Test compounds (Example compounds) (16.5 μL) at various concentrations dissolved in DMSO were added and the mixture was preincubated for 15 minutes on ice.
Prostaglandin H2 (final concentration: 25 μM) (Cayman Chemical) was dispensed into another 8-strip PCR tube, and the solvent was dried and solidified using a vacuum concentrator (Thermo Fisher Scientific). To the dried and solidified prostaglandin H2 was added 50 μL of the assay buffer containing H-PGDS and each test compound after the preincubation, and the mixture was reacted on ice for 1 minute. 45 μL of this mixture was added to 45 μL of a stop solution (50 mM aqueous citric acid solution containing iron chloride at a final concentration of 4 mg/mL) to stop the reaction. Then, the reaction solution was deproteinized, added to a 96 square deep well plate (SHONANMARUHACHI STEC Co., Ltd.), and the prostaglandin D2 concentration in the reaction solution was measured by LC-MS/MS. ACQUITY (registered trademark) TQD (Waters) was used as a measuring instrument.
Prostaglandin Da production activity (f) in the group with each test compound when a value obtained by subtracting the amount of production of prostaglandin D2 in the group without enzyme, which is non-specific production of prostaglandin D2, from the amount of production of prostaglandin Da in the group without test compound (DMSO-addition group) in each 8-strip PCR tube is 100% was calculated.

T1 sequence (O60760 whole entry): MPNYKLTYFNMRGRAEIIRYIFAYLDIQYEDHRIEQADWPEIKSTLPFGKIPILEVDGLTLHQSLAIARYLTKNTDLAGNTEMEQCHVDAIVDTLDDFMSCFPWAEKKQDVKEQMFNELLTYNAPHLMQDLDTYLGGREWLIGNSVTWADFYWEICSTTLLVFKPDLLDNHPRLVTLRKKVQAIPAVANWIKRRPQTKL

For the compound `O=C(N[C@@H]1CCC[C@H](O)C1)c1ccc(-c2nccc3occc23)cc1` (relative stereo) [Example 265, 4-(furo[3,2-c]pyridin-4-yl)-N-(cis-3-hydroxycyclohexyl)benzamide], the concentration for half-maximal inhibition (IC50) came to 4.8 nM.

On to `O=C(NC1CCN(c2nccc(=O)[nH]2)CC1)c1ccc(-c2nccc3occc23)cc1` [Example 179, 4-(furo[3,2-c]pyridin-4-yl)-N-[1-(6-oxo-1,6-dihydropyrimidin-2-yl)piperidin-4-yl]benzamide], for which the half-maximal inhibitory concentration (IC50) came out at 0.97 nM.

For the compound `Cc1cc2occc2c(-c2ccc(C(=O)N[C@H]3CC[C@](C)(O)CC3)cc2)n1` [Example 344, N-(trans-4-hydroxy-4-methylcyclohexyl)-4-(6-methylfuro[3,2-c]pyridin-4-yl)benzamide], the half-maximal inhibitory concentration (IC50) turned out to be 1.7 nM. For `Cc1cc2occc2c(-c2ccc(C(=O)N[C@H]3CC[C@H](NCC(F)F)CC3)cc2)n1` [Example 331, N-{trans-4-[(2,2-difluoroethyl)amino]cyclohexyl}-4-(6-methylfuro[3,2-c]pyridin-4-yl)benzamide], the IC50 was determined as 1.8 nM. Next, `Cc1cccnc1N1CCC(NC(=O)c2ccc(-c3nccc4occc34)cc2)CC1` [Example 153, 4-(furo[3,2-c]pyridin-4-yl)-N-[1-(3-methylpyridin-2-yl)piperidin-4-yl]benzamide]: 4.1 nM. The value for `NC(=O)c1cnc(N2CC[C@H](NC(=O)c3ccc(-c4nccc5occc45)cc3)C2)nc1` [Example 202, (S)-2-(3-[4-(furo[3,2-c]pyridin-4-yl)benzamide]pyrrolidin-1-yl)pyrimidine-5-carboxamide] was 1.5 nM; that for `O=C(NC1CCCCC1)c1ccc(-c2nccc3occc23)cc1` [Example 88, N-cyclohexyl-4-(furo[3,2-c]pyridin-4-yl)benzamide] was 4.2 nM; that for `CC(C)(O)[C@H]1CC[C@H](NC(=O)c2ccc(-c3nc(Cl)cc4occc34)cc2)CC1` [Example 312, 4-(6-chlorofuro[3,2-c]pyridin-4-yl)-N-[trans-4-(2-hydroxypropan-2-yl)cyclohexyl]benzamide] was 1.8 nM. The value for `O=C(N[C@H]1CC[C@H](N2CCOCC2)CC1)c1ccc(-c2nccc3occc23)cc1` [Example 305, 4-(furo[3,2-c]pyridin-4-yl)-N-(trans-4-morpholinocyclohexyl)benzamide] was 55 nM; that for `Cc1cc2occc2c(-c2ccc(C(=O)N[C@H]3CC[C@H](C4(O)CC4)CC3)cc2)n1` [Example 334, N-[trans-4-(1-hydroxycyclopropyl)cyclohexyl]-4-(6-methylfuro[3,2-c]pyridin-4-yl)benzamide] was 2 nM. Regarding `O=C(N[C@H]1C[C@H](O)C1)c1ccc(-c2nccc3occc23)cc1` [Example 270, 4-(furo[3,2-c]pyridin-4-yl)-N-(trans-3-hydroxycyclobutyl)benzamide], the IC50 is 6.4 nM. Turning to `O=C(NCC1COc2ccccc2C1)c1ccc(-c2nccc3occc23)cc1` (stereo not shown) [Example 221, N-(chroman-3-ylmethyl)-4-(furo[3,2-c]pyridin-4-yl)benzamide], the half-maximal inhibitory concentration (IC50) worked out at 4.9 nM. The value for `O=C(N[C@H]1CC[C@H](N2CCCC2=O)CC1)c1ccc(-c2nccc3occc23)cc1` [Example 299, 4-(furo[3,2-c]pyridin-4-yl)-N-[trans-4-(2-oxopyrrolidin-1-yl)cyclohexyl]benzamide] was 4 nM; that for `CC(O)[C@H]1CC[C@H](NC(=O)c2ccc(-c3nccc4occc34)cc2)CC1` (stereo partly drawn) [Example 121, 4-(furo[3,2-c]pyridin-4-yl)-N-[trans-4-(1-hydroxyethyl)cyclohexyl]benzamide] was 1.3 nM. On to `Cc1cc2occc2c(-c2ccc(C(=O)N[C@H]3CC[C@H](C(C)(C)O)CC3)cc2)n1` [Example 127, N-[trans-4-(2-hydroxypropan-2-yl)cyclohexyl]-4-(6-methylfuro[3,2-c]pyridin-4-yl)benzamide], for which the 50% inhibitory concentration (IC50) came to 1.6 nM. Next, `CC(C)(O)CO[C@H]1CC[C@H](NC(=O)c2ccc(-c3nccc4occc34)cc2)CC1` [Example 64, 4-(furo[3,2-c]pyridin-4-yl)-N-[trans-4-(2-hydroxy-2-methylpropoxy)cyclohexyl]benzamide]: 3.1 nM. The value for `O=C(NCC1CCCO1)c1ccc(-c2nccc3[nH]ccc23)cc1` (stereo not shown) [Example 20, 4-(1H-pyrrolo[3,2-c]pyridin-4-yl)-N-[(tetrahydrofuran-2-yl)methyl] benzamide] was 0.83 nM. Next, `O=C(Nc1cccc(F)c1)c1ccc(-c2nccc3occc23)cc1` [Example 112, N-(3-fluorophenyl)-4-(furo[3,2-c]pyridin-4-yl)benzamide]: 3.4 nM; `O=C(NCC1CCCCC1)c1ccc(-c2nccc3occc23)cc1` [Example 85, N-(cyclohexyl-methyl)-4-(furo[3,2-c]pyridin-4-yl)benzamide]: 32 nM. With `CNC(=O)c1ccc(-c2nccc3[nH]ccc23)cc1` [Example 1, N-methyl-4-(1H-pyrrolo[3,2-c]pyridin-4-yl)benzamide], the IC50 amounted to 2.7 nM. Turning to `O=C(NC1CCN(c2nn[nH]n2)CC1)c1ccc(-c2nccc3occc23)cc1` [Example 248, N-[1-(1H-tetrazol-5-yl)piperidin-4-yl]-4-(furo[3,2-c]pyridin-4-yl)benzamide], the IC50 came out at 4.4 nM.

As for `CO[C@H]1CN(c2ncc(CO)cn2)C[C@H]1NC(=O)c1ccc(-c2nccc3occc23)cc1` [Example 206, 4-(furo[3,2-c]pyridin-4-yl)-N-((3R,4S)-1-[5-(hydroxymethyl)pyrimidin-2-yl]-4-methoxypyrrolidin-3-yl)benzamide], the IC50 came to 39 nM. Turning to `CCO[C@H]1CC[C@H](NC(=O)c2ccc(-c3nccc4occc34)cc2)CC1` [Example 287, N-(trans-4-ethoxycyclohexyl)-4-(furo[3,2-c]pyridin-4-yl)benzamide], the half-inhibitory concentration (IC50) was 0.87 nM. The value for `CC(C)(O)CO[C@H]1CC[C@H](NC(=O)c2ccc(-c3nccc4occc34)c(F)c2)CC1` [Example 329, 3-fluoro-4-(furo[3,2-c]pyridin-4-yl)-N-[trans-4-(2-hydroxy-2-methylpropoxy)cyclohexyl]benzamide] was 2 nM. In the case of `CCc1cc2occc2c(-c2ccc(C(=O)N[C@H]3CC[C@H](C(C)(C)O)CC3)cc2)n1` [Example 314, 4-(6-ethylfuro[3,2-c]pyridin-4-yl)-N-[trans-4-(2-hydroxypropan-2-yl)cyclohexyl]benzamide], the IC50 stood at 70 nM. Consider `CC(C)(O)[C@H]1CC[C@H](NC(=O)c2ccc(-c3nc(F)cc4occc34)cc2)CC1` [Example 316, 4-(6-fluorofuro[3,2-c]pyridin-4-yl)-N-[trans-4-(2-hydroxypropan-2-yl)cyclohexyl]benzamide], for which the half-maximal inhibitory concentration (IC50) was found to be 1.5 nM. Next, `COCCn1nc(C)c(CNC(=O)c2ccc(-c3nccc4[nH]ccc34)cc2)c1C` [Example 45, N-{[1-(2-methoxyethyl)-3,5-dimethyl-1H-pyrazol-4-yl]methyl}-4-(1H-pyrrolo[3,2-c]pyridin-4-yl)benzamide]: 0.91 nM; `CCC(=O)N1CCC(NC(=O)c2ccc(-c3nccc4occc34)cc2)CC1` [Example 234, 4-(furo[3,2-c]pyridin-4-yl)-N-(1-propionylpiperidin-4-yl)benzamide]: 1.6 nM. The value for `COC(=O)c1ccnc(N2CCC(NC(=O)c3ccc(-c4nccc5occc45)cc3)CC2)n1` [Example 167, Methyl 2-{4-[4-(furo[3,2-c]pyridin-4-yl)benzamide]piperidin-1-yl}pyrimidine-4-carboxylate] was 1.2 nM; that for `O=C(N[C@H]1CC[C@](O)(C2CC2)CC1)c1ccc(-c2nccc3occc23)cc1` [Example 291, N-(cis-4-cyclopropyl-4-hydroxycyclohexyl)-4-(furo[3,2-c]pyridin-4-yl)benzamide] was 2.4 nM; that for `CC(C)(O)[C@H]1CC[C@H](NC(=O)c2ccc(-c3nc(N)cc4occc34)cc2)CC1` [Example 315, 4-(6-aminofuro[3,2-c]pyridin-4-yl)-N-[trans-4-(2-hydroxypropan-2-yl)cyclohexyl]benzamide] was 2.6 nM.

As for `COc1ccnc(N2CCC(NC(=O)c3ccc(-c4nccc5occc45)cc3)CC2)n1` [Example 162, 4-(furo[3,2-c]pyridin-4-yl)-N-[1-(4-methoxypyrimidin-2-yl)piperidin-4-yl]benzamide], the IC50 is 1.9 nM. Next, `CC(C)(O)[C@H]1CC[C@H](NC(=O)c2ccc(-c3nccc4[nH]ccc34)c(F)c2)CC1` [Example 340, 3-fluoro-N-[trans-4-(2-hydroxypropan-2-yl)cyclohexyl]-4-(1H-pyrrolo[3,2-c]pyridin-4-yl)benzamide]: 1 nM; `O=C(NC1CCN(c2cnc(CO)cn2)CC1)c1ccc(-c2nccc3occc23)cc1` [Example 170, 4-(furo[3,2-c]pyridin-4-yl)-N-{1-[5-(hydroxymethyl)pyrazin-2-yl]piperidin-4-yl}benzamide]: 6.2 nM.
